Series [1] concerns human breast cancer (MCF-7) cell line. Briefly: MTT cytotoxicity assay on MCF-7. It counts as cell-based. As to conditions: MCF7, 24 h incubation, mean and standard error of three tests. As to the method:
(§1) Afterward, the determination of the tested sample concentrations that were sufficient to kill 50 percent of the cell population (IC50) was done by using the cytotoxicity results in plotting a dose-response curve.
(§2) In addition, cytotoxic activities were reported as the average IC50 from three separate tests.
The cytotoxicity of the investigated substances was assessed and determined by MTT assay, and the detailed cytotoxicity assay is included in the Supplementary File S1 [57, 58].
1H-NMR spectra of compound 12c-1
(§3) The tested human breast cancer (MCF -7) cell lines and normal cell line LLC - Mk2 were obtained from the American Type Culture Collection (ATCC, Rockville, MD). The cells were grown on RPMI -1640 medium supplemented with 10% inactivated fetal calf serum and 50µg/mL gentamycin (Lonza, Belgium). The cells were maintained at 37 °C in a humidified atmosphere with 5% CO 2 and were subcultured two to three times a week during the period of experiment .
(§4) For antitumor assays, the tumor cell lines were suspended in medium at cell density of 5x10^4 cells/well in Corning® 96-well tissue culture plates and then incubated for 24 hours. The tested compounds were then added into 96-well plates (six replicates) to achieve eight concentrations for each compound. Six vehicle controls with media or 0.5 % DMSO were run for each 96 well plate as a control. After incubating for 24 h, the numbers of viable cells were determined by the MTT assay. Briefly, the media was removed from the 96-well plate and replaced with 100 µl of fresh culture RPMI 1640 medium without phenol red then 10
(§5) (1 picture or pasted object on this page, not shown here) […]
(§6) µL of the 12 mM MTT stock solution {5 mg of 3-(4,5-dimethylthiazol-2-yl)-2,5-diphenyltetrazolium bromide purchased from Sigma-Aldrich (St. Louis, MO) in 1 mL of Phosphate buffered saline} to each well including the untreated controls. The 96 well plates were then incubated at 37°C and 5% CO 2 for 4 hours.
(§7) An 85 µl aliquot of the media was removed from the wells, and 50 µL of DMSO was added to each well and mixed thoroughly with the pipette and incubated at 37 °C for 10 min. Then, the optical density was measured at 590 nm with the microplate reader (SunRise, TECAN, Inc, USA) to dete rmine the number of viable cells and the percentage of viability was calculated as [(ODt/ODc)]x100% where ODt is the mean optical density of wells treated with the tested sample and ODc is the mean optical density of untreated cells. The relation between surviving cells and drug concentration is plotted to get the survival curve of each tumor cell line after treatment with the specified compound. The 50% inhibitory concentration (IC 50), the concentration required to cause toxic effects in 50% of intact cells, was estimated from graphic plots of the dose response curve for each conc. using GraphPad Prism software (San Diego, CA. USA)[ 2].
1. Mosmann, T. Rapid colorimetric assay for cellular growth and survival: application to proliferation and cytotoxicity assays. J. Immunol. Methods 1983, 65, 55-63.

Series [2] in a line: MTT cytotoxicity assay on normal cell line LLC-Mk2. It counts as cell-based. The note with it: rhesus monkey, LLC-Mk2 kidney epithelial normal cells, mean and standard error. The method, then: as §1, §2
The cytotoxicity of the investigated substances was assessed and determined by MTT assay, and the detailed cytotoxicity assay is included in the Supplementary File S1 [57, 58]. […]
as §3, §4, §5, §6
as §7, with “2]. […]” for “2].”
For orientation: Tetrazolium assays rely on reduction of a dye to a coloured formazan, in cell work by metabolically active cells.

The subject of a further series is VEGFR-2. Details: method as in PMID 28942113, PMID 21078410, PMID 26916914, PMID 27367493, PMID 35807236. As to conditions: in Figure 2; cited from earlier work.

By melting point is commonly meant the temperature, or range, at which the solid turns liquid. Compound `CC(=NNc1nc(-c2ccccc2)cs1)c1cc2cc(N=Nc3ccccc3)ccc2oc1=O` [Compound 12a] came in with a melting point of 217 to 219 °C.

Broadly, the IC50 is the midpoint of a concentration-inhibition curve. Lower therefore signals greater potency. By CC50 is commonly meant the concentration that lowers cell viability or growth by half. Low readings indicate harm at low concentration, high ones better tolerance by the cells. On to `CC(=NNC1=NC(=O)C(=NNc2ccc(C)cc2)S1)c1cc2cc(N=Nc3ccccc3)ccc2oc1=O` [Compound 10a], for which the IC50 in series [1] was 28.6 ± 0.64 µM. Also, it took 140 ± 10.3 µM to reach half-maximal cytotoxicity in series [2] (CC50 at 24 h).

For the compound `C/C(=N\c1ccc(F)cc1)c1c(O)c2ccccc2oc1=O` [III], in the series on VEGFR-2, the VEGFR-2 inhibition was 94%.

Regarding `C/C(=N\Nc1nc(C)c(/N=N/c2ccccc2)s1)c1cc2cc(/N=N/c3ccccc3)ccc2oc1=O` [Compound 6a], the melting point was in the range of 201 to 203 °C.

Regarding `C/C(=N\Nc1nc(-c2ccc([N+](=O)[O-])cc2)cs1)c1cc2cc(/N=N/c3ccccc3)ccc2oc1=O` [Compound 12c], the melting point lay within 231 to 233 °C.

For `CC(=NNc1nc(C)c(N=Nc2ccc(Cl)cc2Cl)s1)c1cc2cc(N=Nc3ccccc3)ccc2oc1=O` [Compound 6e], the melting point fell in the range of 216 to 218 °C.

The compound `CC(=NNc1nc(C)c(N=Nc2ccc(Cl)cc2)s1)c1cc2cc(N=Nc3ccccc3)ccc2oc1=O` [Compound 6d] gave an IC50 in series [1] of 10.5 ± 0.71 µM. For the same compound, half-maximal cytotoxicity in series [2] (CC50 at 24 h) was put at 132 ± 8.26 µM.

In series [1], `CC(=NNC1=NC(=O)C(=NNc2ccc([N+](=O)[O-])cc2)S1)c1cc2cc(N=Nc3ccccc3)ccc2oc1=O` [Compound 10c] yielded an IC50 of 15.7 ± 0.67 µM. Moreover, the CC50 at 24 h in series [2] was determined as 163 ± 9.12 µM.

For `CO/C=N\C1=C(C#N)C(c2ccc(F)cc2)c2c(c3ccccc3oc2=O)C1` (stereo not drawn) [IV], the VEGFR-2 inhibition in the series with VEGFR-2 is 94%.

On to `O=c1oc2cc(O)ccc2c(Nc2ccc(OCCN3CCCCC3)cc2)c1-c1ccc(F)cc1` [X = NH], for which the VEGFR-2 inhibition in the series on VEGFR-2 is recorded as 88.42%.

Compound `CC(=NNc1nc(C)c(N=Nc2ccc(C)cc2)s1)c1cc2cc(N=Nc3ccccc3)ccc2oc1=O` [Compound 6b] gave an IC50 in series [1] of 11.2 ± 0.8 µM. The compound further displayed a CC50 at 24 h in series [2] of 152 ± 9.3 µM.

Compound `COc1ccc(-c2csc(NN=C(C)c3cc4cc(N=Nc5ccccc5)ccc4oc3=O)n2)cc1` [Compound 12b] yielded a melting point of 205 to 207 °C.

Take `CC(=NNC(N)=S)c1cc2cc(N=Nc3ccccc3)ccc2oc1=O` [Compound 3, 2-(1-(2-oxo-6-(phenyldiazenyl)-2H-chromen-3-yl)ethylidene)hydrazine-1-carbothioamide]: the melting point lay in the range of 177 to 179 °C.

Take `CNC(=O)c1cc(Oc2ccc(NC(=O)Nc3ccc(Cl)c(C(F)(F)F)c3)cc2)ccn1` [Sorafenib, reference compound]: inhibition in series [1] was half-maximal at 5.1 ± 0.49 µM (IC50). In series [2], this compound displayed a CC50 at 24 h of 135 ± 4.08 µM.

As to `COc1ccc(/N=N/c2sc(N/N=C(\C)c3cc4cc(/N=N/c5ccccc5)ccc4oc3=O)nc2C)cc1` [Compound 6c], the melting point fell in the range of 179 to 181 °C. The same compound returned an IC50 in series [1] of 14.1 ± 0.63 µM. In series [2], this compound had a CC50 at 24 h of 141 ± 5.15 µM.

Consider `O=c1oc2cc(O)ccc2c(Oc2ccc(OCCN3CCCCC3)cc2)c1-c1ccc(F)cc1` [X = O], for which, in the series on VEGFR-2, the VEGFR-2 inhibition is on record as 82.92%.

With `CC(=NNC1=NC(=O)C(=NNc2ccc(Cl)cc2)S1)c1cc2cc(N=Nc3ccccc3)ccc2oc1=O` [Compound 10b], the melting point was 190 to 192 °C.
